Values of other authors, collected in PMC2711878 (ACS chemical biology, 2009).

Tests used:
[1] = target: monofunctional P. falciparum WT DHFR
[2] = target: P. falciparum double mutant C59R/S108N DHFR
[3] = target: P. falciparum N51I/C59R/S108N/I164L DHFR
[4] = in vivo

Structure (SMILES) | Ki value, WT DHFR [1] | Ki value, double mutant DHFR [2] | Ki value, quadruple mutant DHFR [3] | oral bioavailability [4] | Ki ([1]; read-out: Ki, WT DHFR, monofunctional enzyme) [nM] | Ki, fold less inhibitory than WT, double mutant ([2]; C59R/S108N, monofunctional enzyme) [fold] | Ki, fold less inhibitory than WT, quadruple mutant ([3]; N51I/C59R/S108N/I164L, monofunctional enzyme) [fold]
CC1(C)N=C(N)N=C(N)N1OCCCOc1cc(Cl)c(Cl)cc1Cl [WR99210] | sub-nanomolar | sub-nanomolar | sub-nanomolar | poor | – | – | –
CCc1nc(N)nc(N)c1-c1ccc(Cl)cc1 [pyrimethamine] | – | – | – | – | 1.5 | 50 | > 500
